Data as given in patent US20210317099A1, “SAFER, POTENT, AND FAST ACTING ANTIMICROBIAL AGENTS” (Purdue Research Foundation, priority 2020, published 2021).

Assays:
[1] = In vitro cytotoxicity, MTS assay; format: cell-based, human; details: human, Caco-2 cells; Caco-2, two hours incubation, MTS; read-out: 50% cytotoxic concentration (CC50)
Protocol: Compounds 144, 148, 151, 155, 158, and 187 were assayed (at concentrations of 16, 32, and 64 μg/mL) against a human colorectal adenocarcinoma (Caco-2) cell to determine the potential toxic effect to mammalian cells in vitro. Briefly, cells were cultured in Dulbecco's Modified Eagle Medium (DMEM) supplemented with 10% fetal bovine serum (FBS), non-essential amino acids (1×), penicillin-streptomycin at 37° C. in presence of 5% CO2. Control cells received DMSO alone at a concentration equal to that in drug-treated wells. The cells were incubated with the compounds (in triplicate) in a 96-well plate at 37° C. with 5% CO2 for two hours. This was followed by the subsequent addition of the assay reagent MTS 3-(4,5-dimethylthiazol-2-yl)-5-(3-carboxymethoxyphenyl)-2-(4-sulfophenyl)-2H-tetrazolium) (Promega, Madison, Wis., USA) and the plate was incubated for three to four hours. Absorbance readings (at OD490) were recorded using a kinetic microplate reader (Molecular Devices, Sunnyvale, Calif., USA). The quantity of viable cells after treatment with each compound was expressed as a percentage of the viability of DMSO-treated control cells (average of triplicate wells±standard deviation).
FIG. 3. Analyzing the toxicity of 144, 148, 151, 155, 158, and 187 compounds (tested in triplicates at 16, 32 and 64 μg/mL) against human colorectal cells (Caco-2) using the MTS 3-(4,5-dimethylthiazol-2-yl)-5-(3-carboxymethoxyphenyl)-2-(4-sulfophenyl)-2H-tetrazolium) assay. Results are presented as percent viable cells relative to DMSO (negative control) to determine a baseline measurement for the cytotoxic impact of each compound. The absorbance values represent an average of three samples analyzed for each compound. Error bars represent standard deviation values. The data were analyzed via a two-way ANOVA with post-hoc Dunnett's test for multiple comparisons. An asterisk (*) denotes statistical significance (P<0.05) between results for compounds and DMSO.

MRSA USA 400 = assay: Time-kill assay; format: cell-based, Staphylococcus aureus; details: 5×MIC; for time required for complete eradication of the bacterial count: MRSA USA 400, 24-hour incubation
Protocol: In order to the mode of killing of methylene lactone compounds, a time kill assay was performed against MRSA USA 400 as described previously. MRSA USA400 cells in logarithmic growth phase (OD600˜1.00) were diluted to 6.03×10^6 colony-forming units (CFU/mL) and exposed to concentrations equivalent to 5×MIC (in triplicate) of 148, 149, 151, 155, 158 and vancomycin in Tryptic soy broth. Aliquots (100 μL) were collected from each treatment after 0, 2, 4, 6, 8, 12, and 24 hours of incubation at 37° C. and subsequently serially diluted in PBS. Bacteria were then transferred to Tryptic soy agar plates and incubated at 37° C. for 18-20 hours before viable CFU/mL was determined (FIG. 1).
DMSO (solvent for the compounds) served as a negative control and vancomycin served as a control drug. The error bars represent standard deviation values obtained from triplicate samples used for each compound/antibiotic studied.

[2] = test system: intracellular MRSA USA400 inside murine macrophage (J774) cells; assay: Clearance of intracellular MRSA in infected J774 macrophages; format: cell-based, Staphylococcus aureus; details: 24 hours, J774 infected with MRSA USA400
Protocol: The ability of the compound 148 to reduce the burden of intracellular MRSA was evaluated utilizing previously described methods. Murine macrophage cells (J774) were cultured in Dulbecco's Modified Eagle Medium (DMEM) supplemented with 10% FBS at 37° C. with CO2 (5%). J774 cells were exposed to MRSA USA400 cells at a multiplicity of infection of approximately 10:1. After 1 hour of infection, J774 cells were washed with gentamicin (200 μg/mL) to kill extracellular MRSA. The compounds or vancomycin (at 4×MIC and 8×MIC) were subsequently added to each well (four replicates per test agent). Control cells received DMSO at a concentration equal to that in drug-treated cell samples. After 24 hours-incubation at 37° C. with 5% CO2, the test agents were removed. J774 cells were washed and subsequently lysed using 0.1% Triton-X. The solution was serially diluted in phosphate-buffered saline and transferred to TSA plates in order to determine viable MRSA CFU inside the J774 cells. Plates were incubated at 37° C. for 18-22 hour before counting viable CFU/mL. Statistical significance was assessed with two-way ANOVA, with post hoc Dunnet's multiple comparisons test (P<0.05), utilizing GraphPad Prism 6.0 (GraphPad Software, La Jolla, Calif.).
FIG. 6. Examination of the activity of compounds 148 on the clearance of intracellular MRSA present inside infected murine macrophage (J774) cells. […] Data were analyzed via two-way ANOVA, with post hoc Dunnet's multiple comparisons test (P<0.05), utilizing GraphPad Prism 6.0 (GraphPad Software, La Jolla, Calif.). Asterisks (*) represent significant difference between treatment of J774 cells with compound 148 in comparison to vancomycin.

[3] = test system: murine macrophage (J774) cell line; assay: In vitro cytotoxicity, MTS assay; format: cell-based; details: J774, 24 hours incubation
Protocol: Compounds were assayed against a murine macrophage (J774) cell line to determine their in vitro potential toxic effect. Cells were cultured in Dulbecco's Modified Eagle Medium (DMEM) supplemented with 10% FBS at 37° C. with 5% CO2. Control cells received DMSO alone at a concentration equal to that in drug-treated cell samples. The cells were incubated with the compounds (in triplicate) in a 96-well plate at 37° C. with 5% CO2 for 24 hours. The assay reagent MTS; 3-(4,5-dimethylthiazol-2-yl)-5-(3-carboxymethoxyphenyl)-2-(4-sulfophenyl)-2H-tetrazolium) (Promega, Madison, Wis., USA) was subsequently added and the plate was incubated for three to four hours. Absorbance readings (at OD490) were recorded using a kinetic microplate reader (Molecular Devices, Sunnyvale, Calif., USA). The quantity of viable cells after treatment with each compound was expressed as a percentage of the viability relative to DMSO-treated control cells (average of triplicate wells±standard deviation). FIG. 5. […] Results are presented as percent viable mammalian cells (measured as average absorbance ratio relative to DMSO). The absorbance values represent an average of a minimum of three samples analyzed for each compound. Error bars represent standard deviation values for the absorbance values.

C=C1C(=O)O[C@H](c2ccc3ccccc3c2)[C@@H]1c1ccc2ccccc2c1 [Compound 158]
CC50 at 2 h [1]: > 64 mg/L
time required for complete eradication of the bacterial count (MRSA USA 400): 2 h

C=C1C(=O)O[C@H](c2cccc3ccccc23)[C@@H]1c1ccc2ccccc2c1 [Compound 155]
time required for complete eradication of the bacterial count (MRSA USA 400): 2 h

C=C(C(=O)OC)C(c1ccc2ccccc2c1)C(O)c1cccc2ccccc12 (centres unmarked) [Compound 148]
CC50 at 2 h [1]: > 64 mg/L
reduction of intracellular MRSA ([2]; 4 μg/mL): 0.8 log10
reduction of intracellular MRSA (percent) ([2]; 4 μg/mL): 84.9%
reduction of intracellular MRSA ([2]; 8 μg/mL): about 2.52 log10
reduction of intracellular MRSA (percent) ([2]; 8 μg/mL): 99.7%
time required for complete eradication of the bacterial count (MRSA USA 400): 12 h
reduction in the bacterial count after 6 hours (MRSA USA 400; MRSA USA 400, after 6 hours): 3 log10
reduction in the bacterial count after 6 hours (percent) (MRSA USA 400; MRSA USA 400, after 6 hours): 99.9%
concentration tolerable to J774 cells [3]: ≤ 8 µg/mL

C=C1C(=O)O[C@H](c2ccccc2)[C@@H]1c1cccc2ccccc12 [Compound 151]
CC50 at 2 h [1]: > 64 mg/L
time required for complete eradication of the bacterial count (MRSA USA 400): 2 h
